# From patent US20250057764A1, “COMPOSITIONS, METHODS AND SYSTEMS FOR AEROSOL DRUG DELIVERY” (ASTRAZENECA AB, priority 2021, published 2025)
# Structures can show the parent of a compound that is named as a salt. Where two headings read alike, the source gives them in different places.
# Experiments:
# [1] = Particle size distribution by laser diffraction; format: physicochemical
# Text: When referred to herein, the term “optical diameter” indicates the size of a particle as measured by the Fraunhofer diffraction mode using a laser diffraction particle size analyzer equipped with a dry powder dispenser (e.g., Sympatec GmbH, Clasthal-Zellerfeld, Germany).
# Suspending particles were manufactured by spray drying an emulsion of PFOB (perfluorooctyl bromide) and water stabilized by DSPC (1,2-Distearoyl-sn-Glycero-3-Phosphocholine). Detailed preparation procedures have been documented previously. The particle size distribution of the suspending particles was determined by laser diffraction.
# Active agent particles formed of budesonide, 16,17-(butylidenebis(oxy))-11,21-dihydroxy-, (11-β,16-α)-pregna-1,4-diene-3,20-dione, were formed by micronizing budesonide using a jet mill. The particle size distribution of the budesonide (BD) was determined by laser diffraction.
# [2] = Aerodynamic particle size distribution by NGI (FPF, FPD, MMAD) of HFC-152a co-suspension MDIs; format: physicochemical
# Text: (§1) In the context of a composition containing or providing respirable aggregates, particles, drops, etc., such as compositions described herein, the term “fine particle dose” or “FPD” refers to the dose, either in total mass or fraction of the nominal dose or metered dose, that is within a respirable range. The dose that is within the respirable range in measured in vitro to be the sum of the dose delivered at stages 3 through Micro Orifice Collector in a Next Generation Impactor operated at a flow rate of 30 l/min.
# (§2) In the context of a composition containing or providing respirable aggregates, particles, drops, etc., such as compositions described herein, the term “fine particle fraction” or “FPF” refers to the proportion of the delivered material relative to the delivered dose (i.e. the amount that exits the actuator of a delivery device, such as an MDI) that is within a respirable range. The amount of delivered material within the respirable range is measured in vitro as the sum of the material delivered at stages 3 through Micro Orifice Collector in a Next Generation Impactor operated at a flow rate of 30 l/min.
# The mixture is agitated to facilitate powder wetting and then transferred to a pressure vessel where the suspension is mixed. Valves comprised of 50 uL metering chambers (BK357, Bespak, King's Lynn, UK) are crimped onto fluorinated ethylene polymer (FEP) coated aluminum cans (Presspart, Blackburn, UK) and the suspension is then pressure filled through the valve.
# Metered dose inhalers containing a triple co-suspension composition comprising glycopyrrolate, budesonide, and formoterol active agent particles were prepared, with each type of active agent particle being provided as a micronized, crystalline API material.
# [3] = Aerodynamic particle size distribution by NGI after storage of the MDI (stability); format: physicochemical; details: active in BGF-152a
# Text: as §1, §2
# The fine particle fraction (FPF) present in the delivered dose upon actuation of an MDI containing budesonide, formoterol, or glycopyrrolate active agent particles and phospholipid particles was measured following storage of the MDI under various temperature and relative humidity conditions for varied periods of time. […]
# [4] = cited from earlier work; for Latent Heat @ Boiling Point: at boiling point
# [5] = active in BGF-152a MDI, Example 2
smiles,measurement,setting,value
"COc1ccc(CC(C)NCC(O)c2ccc(O)c(NC=O)c2)cc1.O=C(O)/C=C/C(=O)O (racemic) [FF, (±)-2-hydroxy-5-[(1RS)-1-hydroxy-2-[[(1RS)-2-(4-methoxyphenyl)-1-methylethyl]-amino]ethyl]formanilide fumarate]",Optical diameter / size of 50% by volume of the particles (smaller than),[1],smaller than 1.6 μm
same,Optical diameter / size of 90% by volume of the particles (smaller than),[1],smaller than 3.9 μm
"CC(C)(C)NCC(O)c1ccc(O)c(CO)c1 (stereo not drawn) [AB, α1 [(tert-butylamino)methyl]-4-hydroxy-m xylene-α,α′-diol sulfate]",Optical diameter / size of 50% by volume of the particles (smaller than),[1],smaller than 1.5 μm
same,Optical diameter / size of 90% by volume of the particles (smaller than),[1],smaller than 3.3 μm
same,"FPD, <6.4 μm (μg/act)",[2]; active in BDA-152a MDI,28.68 ± 0.61 μg/act
same,"FPF, <6.4 μm (%)",[2]; active in BDA-152a MDI,31 ± 1%
same,MMAD (μm),[2]; active in BDA-152a MDI,4.36 ± 0.06 μm
"C[N+]1(C)CCC(OC(=O)C(O)(c2ccccc2)C2CCCC2)C1.[Br-] (centres unmarked) [GP, Pyrrolidinium, 3-((cyclopentylhydroxyphenylacetyl)oxy)-1,1-dimethyl-, bromide]","FPD, <6.4 μm (μg/act)",[3]; 1 month 25° C./60% RH,3.02 ± 0.08 μg/act
same,"FPF, <6.4 μm (%)",[3]; 1 month 25° C./60% RH,45 ± 1%
same,"FPD, <6.4 μm (μg/act)",[3]; 1 month 40° C./75% RH,3.18 ± 0.15 μg/act
same,"FPF, <6.4 μm (%)",[3]; 1 month 40° C./75% RH,46 ± 1%
same,"FPD, <6.4 μm (μg/act)",[3]; 3 month 25° C./60% RH,3.42 ± 0.08 μg/act
same,"FPF, <6.4 μm (%)",[3]; 3 month 25° C./60% RH,49 ± 1%
same,"FPD, <6.4 μm (μg/act)",[3]; 3 month 40° C./75% RH,3.62 ± 0.08 μg/act
same,"FPF, <6.4 μm (%)",[3]; 3 month 40° C./75% RH,50 ± 1%
same,"FPD, <6.4 μm (μg/act)",[3]; 6 month 25° C./60% RH,3.50 ± 0.07 μg/act
same,"FPF, <6.4 μm (%)",[3]; 6 month 25° C./60% RH,50 ± 1%
same,"FPD, <6.4 μm (μg/act)",[3]; 6 month 40° C./75% RH,3.44 ± 0.27 μg/act
same,"FPF, <6.4 μm (%)",[3]; 6 month 40° C./75% RH,49 ± 2%
same,"FPD, <6.4 μm (μg/act)",[3]; 12 month 25° C./60% RH,3.46 ± 0.05 μg/act
same,"FPF, <6.4 μm (%)",[3]; 12 month 25° C./60% RH,48 ± 2%
same,"FPD, <6.4 μm (μg/act)",[3]; Initial,3.18 ± 0.16 μg/act
same,"FPF, <6.4 μm (%)",[3]; Initial,47 ± 2%
same,Optical diameter / size of 50% by volume of the particles (smaller than),[1],smaller than 2.1 μm
same,Optical diameter / size of 90% by volume of the particles (smaller than),[1],smaller than 5 μm
same,"FPD, <6.4 μm (μg/act)",[2]; [5],3.69 ± 0.36 μg/act
same,"FPF, <6.4 μm (%)",[2]; [5],49 ± 3%
same,"FPD, <6.4 μm (μg/act)",[2]; active in GFF-152a MDI,3.56 ± 0.18 μg/act
same,"FPF, <6.4 μm (%)",[2]; active in GFF-152a MDI,48 ± 1%
same,MMAD (μm),[2]; active in GFF-152a MDI,3.43 ± 0.07 μm
"FCC(F)(F)F [HFA-134a, 1,1,1,2-tetrafluoroethane]",Liquid Density @ 20° C.,[4],1.23 g/mL
same,Liquid Viscosity @ 20° C.,[4],0.211 mPa · S
same,Surface Tension @ 20° C.,[4],8.09 mN/m
same,Vapor Pressure @ 20° C.,[4],570 kPa
same,Latent Heat @ 25° C.,[4],177.7 kJ/kg
same,Water Solubility in Propellant,[4]; @25,1100@25 ppm
same,Latent Heat @ Boiling Point,[4],216.7 kJ/kg
"FC(C(F)(F)F)C(F)(F)F [HFA-227ea, 1,1,1,2,3,3,3-Heptafluoropropane]",Liquid Density @ 20° C.,[4],1.41 g/mL
same,Liquid Viscosity @ 20° C.,[4],0.267 mPa · S
same,Surface Tension @ 20° C.,[4],7.50 mN/m
same,Vapor Pressure @ 20° C.,[4],390 kPa
same,Latent Heat @ 25° C.,[4],110.97 kJ/kg
same,Water Solubility in Propellant,[4]; @25,610@25 ppm
same,Latent Heat @ Boiling Point,[4],131.4 kJ/kg
"CC(F)F [HFC-152a, 1,1-Difluoroethane]",Liquid Density @ 20° C.,[4],0.91 g/mL
same,Liquid Viscosity @ 20° C.,[4],0.171 mPa · S
same,Surface Tension @ 20° C.,[4],10.4 mN/m
same,Vapor Pressure @ 20° C.,[4],510 kPa
same,Latent Heat @ 25° C.,[4],279.1 kJ/kg
same,Water Solubility in Propellant,[4]; @25,2100@25 ppm
same,Latent Heat @ Boiling Point,[4],318.4 kJ/kg
"C=C(F)C(F)(F)F [HFO-1234yf, 2,3,3,3-Tetrafluoropropene]",Liquid Density @ 20° C.,[4],1.11 g/mL
same,Liquid Viscosity @ 20° C.,[4],0.164 mPa · S
same,Surface Tension @ 20° C.,[4],6.8 mN/m
same,Vapor Pressure @ 20° C.,[4],592 kPa
same,Latent Heat @ 25° C.,[4],145.4 kJ/kg
same,Water Solubility in Propellant,[4]; @24,200@24 ppm
same,Latent Heat @ Boiling Point,[4],180.5 kJ/kg
FC=CC(F)(F)F [HFO-1234ze],Liquid Density @ 20° C.,[4],1.18 g/mL
same,Liquid Viscosity @ 20° C.,[4],0.206 mPa · S
same,Surface Tension @ 20° C.,[4],8.9 mN/m
same,Vapor Pressure @ 20° C.,[4],427 kPa
same,Latent Heat @ 25° C.,[4],166.8 kJ/kg
same,Water Solubility in Propellant,[4]; @20,225@20 ppm
same,Latent Heat @ Boiling Point,[4],195.43 kJ/kg
